In patent US11701369B2, “Polymeric bile acid derivatives inhibit Hepatitis B and D virus and NTCP transport” (Huahui Health Ltd., priority 2014, dated 2023):
“Also recorded” adds a separate entry of the source.

Key:
HBV [1] = test: HBV infection assay on HepaRG cells (HBsAg and HBeAg ELISA); format: cell-based, Hepatitis B virus; conditions: HBsAg and HBeAg at 5 dpi
Procedure: FIG. 11 HepaRG cells were infected with HBV in the presence of indicated PBADs. The level of secreted HBsAg and HBeAg was detected by ELISA at 5 dpi.
The antiviral potency of PBADs is also repeatable on other HBV infection system (HepaRG) with similar inhibition profile. […] HBV infection was conducted in the presence of NQL028, NQL018, NQL029, NQL019 and NQL021, all of which were bis-ester based PBADs with different linkage length.

HBV [2] = test: HBV infection assay on HepG2-NTCP cells (secreted HBeAg by ELISA); format: cell-based, Hepatitis B virus; conditions: HepG2-NTCP cells, secreted HBeAg
Procedure: (§1) HBV and HDV infection assay. HepG2NTCP Cells were cultured in PMM for 12-24 hrs before infection, and then inoculated with 200 multiplicities of genome equivalents (mge) of HBV, or 500 mge of HDV in the presence of 5% PEG8000 in PMM at 37° C. for about 24 hrs. Chemicals to be tested were added to the cells as indicated in the specific assays. The inoculum was replenished by PMM post infection. The infections were detected at day 5 post infection (dpi).
ELISA assay for the detection of HBeAg and HBsAg. ELISA kits for HBeAg and HBsAg detection were from Wantai Pharm Inc. (Beijing, China). Supernatant from infected HepG2NTCP cells was collected on 2-5 days post infection. The secreted HBeAg and HBsAg in the culture medium was measured with a commercial kit from Wantai Pharm Inc (Beijing, China) by following the manufactory's instructions.

HDV = HDV infection assay on HepG2-NTCP cells (intracellular delta antigen staining); format: cell-based, Hepatitis D virus
Procedure: as §1
Immunostaining assay. For HBV infection, infected cells were washed twice with PBS and fixed in 3.7% paraformaldehyde (PFA) at room temperature for 10 mins. Subsequently, cells were permeabilized with 0.5% Trition X-100/PBS for 10 mins at room temperature, blocked with 3% BSA at 37° C. for 1 hour, and followed by incubating with 5 μg/ml mouse mAb1C10 which recognizes HBcAg, and followed by staining with FITC-conjugated secondary antibody. Nucleus was stained with DAPI in blue. The stained cells were imaged with the fluorescence microscope (Nikon). For HDV infection, on 5 dpi, HDV infected cells were fixed with 100% methanol at room temperature for 10 mins, intracellular delta antigens were then stained with 5 μg/ml of FITC conjugated 4G5 and nucleus were stained with DAPI in blue. Images were collected by an Eclipse Ti Fluorescence Microscope (Nikon) and a representative picture is shown.

NTCP = biological target: T1, NTCP (Homo sapiens, UniProt Q14973); test: [3H] taurocholate uptake assay on HepG2-NTCP cells; format: cell-based; conditions: co-incubation assay, [3H] taurocholate, 10 min
T1 construct: expressed in transfected cells
T1 sequence (Q14973 1-349): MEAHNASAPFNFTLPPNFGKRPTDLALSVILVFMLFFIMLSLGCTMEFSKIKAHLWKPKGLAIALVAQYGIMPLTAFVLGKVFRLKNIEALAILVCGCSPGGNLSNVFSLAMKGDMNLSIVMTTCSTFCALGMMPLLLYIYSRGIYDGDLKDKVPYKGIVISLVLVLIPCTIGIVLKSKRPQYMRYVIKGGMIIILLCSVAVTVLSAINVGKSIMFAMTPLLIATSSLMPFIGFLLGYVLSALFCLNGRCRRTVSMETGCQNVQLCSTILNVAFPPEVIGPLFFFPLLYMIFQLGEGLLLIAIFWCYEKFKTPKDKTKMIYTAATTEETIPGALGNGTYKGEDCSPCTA
Procedure: [3H] substrate uptake assay. [3H]taurocholate uptake assay was conducted following a protocol as previously described(60). In general, HepG2-NTCP cells were cultured in PMM for 12-24 hrs, then were treated with or without indicated chemicals before uptake assay. For substrate uptake assay, cells were generally incubated with 0.5 μl (0.5 μCi) [3H]-taurocholate dissolved in Na+ Ringer's solutions for 10 mins at 37° C. with or without the presence of chemicals. Subsequently, cells were washed once by PBS and lysed by 100 μl of 1% TritonX-100 in H2O for 5 mins at room temperature. The lysate was transferred into liquid scintillation tube and mixed with 900 μl liquid scintillation cocktail (Ultima GOLD™ XR) (Perkin Elmer, USA). Liquid scintillation counting was performed on a Perkin Elmer 1450 LSC Liquid Scintillation Counter and Luminescence Counter.

HBV [3] = test: In vitro stability: incubation with HBV inocula before infection, HBeAg ELISA; format: cell-based, Hepatitis B virus; conditions: incubated with HBV inocula for different times before infection, HBeAg at 5 dpi
Procedure: FIG. 10 The influence of the linkage groups on the in vitro stability of PBADs. TUDCA, NQL018, NQL044, and NQL055 were incubated with HBV inocula of different times before viral infection, and present in the inocula during infection period. The level of secreted HBeAg was detected by ELISA at 5 dpi.
The in vitro stability of PBADs could PBADs could be enhanced by optimization of the linkage bond. We conducted stability analysis of several PBADs with similar structure but of different linkage. […] This indicates the in vitro and in vivo stability is to a large extent determined by the feature of the linkage groups.

SMILES: C[C@H](CCC(=O)NCCS(=O)(=O)O)[C@H]1CC[C@H]2[C@@H]3[C@@H](O)CC4C[C@H](OC(=O)CCCCCC(=O)O[C@@H]5CC[C@@]6(C)C(C5)C[C@H](O)[C@H]5[C@@H]7CC[C@H]([C@H](C)CCC(=O)NCCS(=O)(=O)O)[C@@]7(C)CC[C@@H]56)CC[C@]4(C)[C@H]3CC[C@]12C (stereo in doubt) [NQL-019]
- inhibition of HBV infection on HepaRG cells (in words) (HBV [1]): inhibited HBV infection

SMILES: C[C@H](CCC(=O)NCCS(=O)(=O)O)[C@H]1CC[C@H]2[C@@H]3[C@@H](O)CC4C[C@H](OC(=O)CCC(=O)O[C@@H]5CC[C@@]6(C)C(C5)C[C@H](O)[C@H]5[C@@H]7CC[C@H]([C@H](C)CCC(=O)NCCS(=O)(=O)O)[C@@]7(C)CC[C@@H]56)CC[C@]4(C)[C@H]3CC[C@]12C (stereo in doubt) [NQL-028]
- inhibition of HBV infection on HepaRG cells (in words) (HBV [1]): inhibited HBV infection

SMILES: C[C@H](CCC(=O)NCCS(=O)(=O)O)[C@H]1CC[C@H]2[C@@H]3[C@@H](O)CC4C[C@H](OC(=O)CCCCC(=O)O[C@@H]5CC[C@@]6(C)C(C5)C[C@H](O)[C@H]5[C@@H]7CC[C@H]([C@H](C)CCC(=O)NCCS(=O)(=O)O)[C@@]7(C)CC[C@@H]56)CC[C@]4(C)[C@H]3CC[C@]12C (stereo in doubt) [NQL-029]
- inhibition of HBV infection on HepaRG cells (in words) (HBV [1]): inhibited HBV infection

SMILES: C[C@H](CCC(=O)NCCS(=O)(=O)O)[C@H]1CC[C@H]2[C@@H]3[C@@H](O)CC4CC5(CC[C@]4(C)[C@H]3CC[C@]12C)N=N5 (stereo partly shown) [3-Diz-TUDCA]
- inhibition of HBV infection (in words) (HBV [2]): did not show significantly improved inhibitory efficiency over the natural monomeric TUDCA

SMILES: CC(=O)O[C@@H]1CC[C@@]2(C)C(C1)C[C@H](O)[C@H]1[C@@H]3CC[C@H]([C@H](C)CCC(=O)NCCS(=O)(=O)O)[C@@]3(C)CC[C@@H]12 (stereo partly shown) [3-OAc-TUDCA]
- inhibition of HBV infection (in words) (HBV [2]): did not show significantly improved inhibitory efficiency over the natural monomeric TUDCA

SMILES: C[C@H](CCC(=O)NCCS(=O)(=O)O)[C@H]1CC[C@H]2[C@H]3[C@H](CC[C@]12C)[C@@]1(C)CC[C@@H](O)CC1CC31N=N1 (stereo partly shown) [7-Diz-TUDCA]
- inhibition of HBV infection (in words) (HBV [2]): did not show significantly improved inhibitory efficiency over the natural monomeric TUDCA

SMILES: C[C@H](CCC(=O)OCCCCC[C@@H]1SC[C@@H]2NC(=O)N[C@@H]21)[C@H]1CC[C@H]2C3[C@@H](O)CC4C[C@H](O)CC[C@]4(C)[C@H]3CC[C@]12C (stereo partly shown) [Biotin-UDCA]
- inhibition of HBV infection (in words) (HBV [2]): did not show significantly improved inhibitory efficiency over the natural monomeric TUDCA

SMILES: CCN(CCCN(C)C)C(=O)OC(=O)CC[C@@H](C)[C@H]1CC[C@H]2[C@@H]3[C@@H](O)CC4C[C@H](O)CC[C@]4(C)[C@H]3CC[C@]12C (stereo partly shown) [CA-UDCA, Carbamic-UDCA]
- inhibition of HBV infection (in words) (HBV [2]): did not show significantly improved inhibitory efficiency over the natural monomeric TUDCA

SMILES: C[C@H](CCC(=O)NCCCC1(C)N=N1)[C@H]1CC[C@H]2[C@@H]3[C@@H](O)CC4C[C@H](O)CC[C@]4(C)[C@H]3CC[C@]12C (stereo partly shown) [Diz-UDCA, Diz-Ursodeoxycholic acid]
- inhibition of HBV infection (in words) (HBV [2]): did not show significantly improved inhibitory efficiency over the natural monomeric TUDCA

SMILES: C[C@H](CCC(=O)NCCS(=O)(=O)O)[C@H]1CC[C@H]2[C@@H]3[C@@H](O)CC4C[C@@H](O)CC[C@]4(C)[C@H]3CC[C@]12C (stereo partly shown) [Iso-TUDCA, Iso-tauroursodeoxycholic acid]
- inhibition of HBV infection (in words) (HBV [2]): did not show significantly improved inhibitory efficiency over the natural monomeric TUDCA

SMILES: C[C@H](CCC(=O)NCCS(=O)(=O)O)[C@H]1CC[C@@H]2C3[C@@H](OC(=O)CC[C@@H](C)[C@H]4CC[C@@H]5C6[C@@H](CC[C@@]54C)[C@@]4(C)CC[C@H](O)CC4C[C@@H]6O)CC4C[C@@H](O)CC[C@]4(C)[C@@H]3CC[C@@]21C (stereo partly shown) [NQL-015]
- inhibition of HBV infection (in words) (HBV [2]): high antiviral activity; also recorded: greatly improved potency
- inhibition of HDV infection (in words) (HDV): high antiviral activity; also recorded: greatly improved potency
- inhibition of NTCP substrate uptake (in words) (NTCP): significantly higher efficiency than that of TUDCA

SMILES: C[C@H](CCC(=O)NCCS(=O)(=O)O)[C@H]1CC[C@H]2[C@@H]3[C@@H](O)CC4CC(NC(=O)CCCC(=O)NC5CC[C@@]6(C)C(C5)C[C@H](O)[C@H]5[C@@H]7CC[C@H]([C@H](C)CCC(=O)NCCS(=O)(=O)O)[C@@]7(C)CC[C@@H]56)CC[C@]4(C)[C@H]3CC[C@]12C (stereo partly shown) [NQL-021]
- inhibition of HBV infection on HepaRG cells (in words) (HBV [1]): inhibited HBV infection

SMILES: C[C@H](CCC(=O)NCCS(=O)(=O)O)[C@H]1CC[C@H]2[C@@H]3[C@@H](O)CC4C[C@H](NC(=O)CCCC(=O)N[C@@H]5CC[C@@]6(C)C(C5)C[C@H](O)[C@H]5[C@@H]7CC[C@H]([C@H](C)CCC(=O)NCCS(=O)(=O)O)[C@@]7(C)CC[C@@H]56)CC[C@]4(C)[C@H]3CC[C@]12C (stereo partly shown) [NQL-044]
- inhibition of HBV infection (in words) (HBV [2]): high antiviral activity
- inhibition of HDV infection (in words) (HDV): high antiviral activity
- in vitro stability (antiviral potency after long incubation with the inoculum) (HBV [3]): much more stable as no significant potency decrease was observed

SMILES: C[C@H](CCC(=O)NCCS(=O)(=O)O)[C@H]1CC[C@H]2[C@@H]3[C@@H](O)CC4C[C@H](OCc5cn([C@@H]6CC[C@@]7(C)C(C6)C[C@H](O)[C@H]6[C@@H]8CC[C@H]([C@H](C)CCC(=O)NCCS(=O)(=O)O)[C@@]8(C)CC[C@@H]67)nn5)CC[C@]4(C)[C@H]3CC[C@]12C (stereo partly shown) [NQL-055]
- in vitro stability (antiviral potency after long incubation with the inoculum) (HBV [3]): much more stable as no significant potency decrease was observed

SMILES: C[C@H](CCC(=O)NCCS(=O)(=O)O)[C@H]1CC[C@H]2[C@@H]3[C@@H](O)CC4C[C@H](O)CC[C@]4(C)[C@H]3CC[C@]12C (stereo partly shown) [TUDCA, Tauroursodeoxycholic acid, reference compound]
- inhibition of HBV infection (in words) (HBV [2]): most potent one among all bile acid derivatives tested
